The record followed here is article PMC9437101, “Curcumin-based-fluorescent probes targeting ALDH1A3 as a promising tool for glioblastoma precision surgery and early diagnosis” (Communications Biology, 2022).

“And” between values parts separate entries of the source, which are not always exact repeats. Identical values can stand only once.

Series [1] is described as follows: LC-HRMS analysis, enzymatic assay buffer + probe without enzyme. The settings on record: 1 h. How it is done:
These analyses were carried out by using UPLC-HRMS procedure with Vanquish UPLC system coupled to a Thermo Scientific Q-Exactive Plus, operating in negative electrospray ionization mode. The chromatographic separation was carried out using a Phenomenex Synergi 4 µ Polar-RP 80 A (150 × 2 mm) equipped with a Phenomenex Polar-RP (4 mm × 2 mm) security guard column. The mobile phase consisted of A: acetonitrile 0.1% formic acid and B: 0.1% formic acid. We used a linear elution gradient, starting from 80% of A to 5% A in 3 min, 3 min at 5% A, an equilibration of 4 min for a total run time of 10.00 min, at 300 µl/min flow rate. The autosampler temperature was set at 15 °C, the injection volume was 5 µl and column was maintained at 40 °C. […] Before injecting the samples, the blanks in the list were analyzed and every biological sample was analyzed in duplicate. The biological samples analyzed were as follow: (1) Enzymatic assay Buffer; (2) Enzymatic assay Buffer + NAD^+; (3) Enzymatic assay Buffer + Probe 10 or Probe 11; (4) Enzymatic assay Buffer + ALDH1A1; (5) Enzymatic assay Buffer + ALDH1A2; (6) Enzymatic assay Buffer + ALDH1A3; (7) Enzymatic assay Buffer + ALDH1A1 + Probe 10 or Probe 11; (8) Enzymatic assay Buffer + ALDH1A2 + Probe 10 or Probe 11; (9) Enzymatic assay Buffer + ALDH1A3 + Probe 10 or Probe 11. […]

For a further series, the target named is T1, ALDH1A1 (Homo sapiens, UniProt P00352).
T1 construct: E. coli BL21 (DE3) were transformed with the full-length expression vector of each isoform; His-tag; made in house; host or cells: E. coli BL21 (DE3)
T1 sequence (P00352 1-501): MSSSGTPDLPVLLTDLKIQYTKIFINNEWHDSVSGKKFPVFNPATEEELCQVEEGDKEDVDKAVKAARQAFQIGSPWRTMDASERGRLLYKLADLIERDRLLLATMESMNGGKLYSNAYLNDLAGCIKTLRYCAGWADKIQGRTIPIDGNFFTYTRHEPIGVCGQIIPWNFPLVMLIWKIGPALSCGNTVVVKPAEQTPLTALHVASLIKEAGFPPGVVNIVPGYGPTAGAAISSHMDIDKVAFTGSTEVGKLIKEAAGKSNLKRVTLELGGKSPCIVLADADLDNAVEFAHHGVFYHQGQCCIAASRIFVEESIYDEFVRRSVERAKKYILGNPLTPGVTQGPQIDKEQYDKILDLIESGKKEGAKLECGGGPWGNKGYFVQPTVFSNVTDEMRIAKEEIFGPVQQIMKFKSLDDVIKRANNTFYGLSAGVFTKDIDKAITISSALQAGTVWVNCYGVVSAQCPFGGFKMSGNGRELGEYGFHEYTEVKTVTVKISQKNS
In words: LC-HRMS analysis of isoenzyme activity in presence of probe. Conditions: ALDH1A1, 1 h. The class given is biochemical. How it is done:
(§1) These analyses were carried out by using UPLC-HRMS procedure with Vanquish UPLC system coupled to a Thermo Scientific Q-Exactive Plus, operating in negative electrospray ionization mode. The chromatographic separation was carried out using a Phenomenex Synergi 4 µ Polar-RP 80 A (150 × 2 mm) equipped with a Phenomenex Polar-RP (4 mm × 2 mm) security guard column. The mobile phase consisted of A: acetonitrile 0.1% formic acid and B: 0.1% formic acid. We used a linear elution gradient, starting from 80% of A to 5% A in 3 min, 3 min at 5% A, an equilibration of 4 min for a total run time of 10.00 min, at 300 µl/min flow rate. The autosampler temperature was set at 15 °C, the injection volume was 5 µl and column was maintained at 40 °C. The heated electrospray ionization source was used, with a spray voltage of […], with a capillary temperature of 300 °C, a heater temperature of 350 °C, a sheat gas flow of 45 arbitrary units (AU), an auxiliary gas flow of 10 AU and a sweep gas flow of 0 AU. During the Parallel Reaction Monitoring acquisition in negative ion mode, the instrument operated at 17,500 resolution in presence of the inclusion list (m/z = 596.20384 and m/z = 612.19875 for Probe 10 and Probe 10-COOH respectively; m/z = 534.18819 and m/z = 506.156888 for Probe 11 and Probe 11-COOH respectively) with an automatic gain control target of 2 × 10^5 charges and a maximum injection time of 100 ms. Before injecting the samples, the blanks in the list were analyzed and every biological sample was analyzed in duplicate. The biological samples analyzed were as follow: (1) Enzymatic assay Buffer; (2) Enzymatic assay Buffer + NAD^+; (3) Enzymatic assay Buffer + Probe 10 or Probe 11; (4) Enzymatic assay Buffer + ALDH1A1; (5) Enzymatic assay Buffer + ALDH1A2; (6) Enzymatic assay Buffer + ALDH1A3; (7) Enzymatic assay Buffer + ALDH1A1 + Probe 10 or Probe 11; (8) Enzymatic assay Buffer + ALDH1A2 + Probe 10 or Probe 11; (9) Enzymatic assay Buffer + ALDH1A3 + Probe 10 or Probe 11. All samples were diluted 1:1 with ACN, then 1:100 in ACN-Water 1:1 prior the LC-HRMS analysis.

For a further series, the target named is T2, ALDH1A2 (Homo sapiens, UniProt O94788).
T2 construct: E. coli BL21 (DE3) were transformed with the full-length expression vector of each isoform; His-tag; made in house; host or cells: E. coli BL21 (DE3)
T2 sequence (O94788 1-518): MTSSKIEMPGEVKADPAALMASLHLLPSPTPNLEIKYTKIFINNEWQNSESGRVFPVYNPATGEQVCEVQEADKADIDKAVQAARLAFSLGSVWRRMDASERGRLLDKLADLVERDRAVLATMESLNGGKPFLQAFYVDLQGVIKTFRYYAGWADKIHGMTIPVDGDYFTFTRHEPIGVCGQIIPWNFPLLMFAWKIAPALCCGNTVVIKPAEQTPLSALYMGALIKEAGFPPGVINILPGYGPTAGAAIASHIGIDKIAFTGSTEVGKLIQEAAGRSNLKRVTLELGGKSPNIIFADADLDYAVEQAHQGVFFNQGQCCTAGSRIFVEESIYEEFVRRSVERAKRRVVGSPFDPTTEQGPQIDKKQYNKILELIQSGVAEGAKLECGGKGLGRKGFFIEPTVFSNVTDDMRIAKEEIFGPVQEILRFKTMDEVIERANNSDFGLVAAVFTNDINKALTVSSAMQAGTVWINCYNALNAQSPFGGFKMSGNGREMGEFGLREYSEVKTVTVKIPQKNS
The description is as above. The class given is biochemical. The settings on record: ALDH1A2, 1 h. How it is done:
as §1

Substrate in series [2]: COc1cc(/C=C/C(O)=C/C(=O)/C=C/c2ccc(OCc3cn(CCOc4ccc(C=O)cc4)nn3)c(OC)c2)ccc1O
As to the kind of experiment: KM evaluation, probe as substrate (NADH absorbance 340 nm). The settings on record: other: probe as substrate; pH 8.0; 25.0 °C. The class given is biochemical, human. How it is done:
The catalytic activity of the ALDH1As isoenzymes in complex with probe 10 was tested on a Tecan Sunrise 96 Multiplate Reader with Greiner Bio-One 96-UV-Transparent Microplates. […] Each reaction mix was preincubated for 10 min at 25 °C before the analysis. The catalytic activity was measured by monitoring the absorbance at 340 nm (εNADH = 6220 M^−1 cm^−1) for 12 h at 25 °C and the inhibitory parameters were calculated by processing the raw data on GraphPad.

As for `COc1cc(/C=C/C(O)=C/C(=O)/C=C/c2ccc(OCc3cn(CCOc4ccc(C(=O)O)cc4)nn3)c(OC)c2)ccc1O` [Probe 10-COOH], the “AREA TIC of Probe 10-COOH formed from Probe 10” value in series [1] was 0; on ALDH1A1, 26353656 and 30637066 and 18030552 and 17027138; at ALDH1A2, 18647884 and 19590595 and 21767211 and 22597746.

B1: ALDH1A2 (Homo sapiens) (protein)
chain: T2 sequence (O94788 1-518)
notes: E. coli BL21 (DE3) were transformed with the full-length expression vector of each isoform; His-tag; made in house; host or cells: E. coli BL21 (DE3)
Regarding B1, the Km in series [2] came to 220.0 µM.

B2: ALDH1A1 (Homo sapiens) (protein)
chain: T1 sequence (P00352 1-501)
notes: as for B1
B2: the Michaelis-Menten constant (Km) in series [2] was 255.2 µM.

By Km is commonly meant the concentration of substrate that gives half-maximal velocity.
